Earlier results in US20100004191A1, “Compositions of S-adenosyl-L-methionine” (priority 2008, published 2010).

Key:
[1] = test system: alcoholic liver cirrhosis; conditions: oral; patients with alcoholic liver cirrhosis; compared with placebo treated group
beta-adrenergic = conditions: L-form vs D-enantiomer

SMILES	overall mortality and/or progression to liver transplant [1]	potency relative to the D-enantiomer (beta-adrenergic)
C[S+](CC[C@H](N)C(=O)[O-])C[C@H]1O[C@@H](n2cnc3c(N)ncnc32)[C@H](O)[C@@H]1O (stereo partly drawn) [S-adenosyl-L-methionine]	29%	
CC(C)NCC(O)COc1cccc2ccccc12 (centres unmarked) [propranolol]		100 times
